Format in all cases: in vivo
Assay [1] has as its system Corn seeds (Zea mays; variety Pioneer herbicide resistant 33P71). Put plainly: Cold stress on corn seedlings after seed treatment. The conditions noted are these: second exposure to cold stress (−5° C., 2 hours, code 13). The method, then:
Corn seeds (Zea mays; variety Pioneer herbicide resistant 33P71) were treated using either:
T1: Water (untreated) T2: Pyraclostrobin (5 g active ingredient 100 kg seeds) T3. Azoxystrobin (1 g active ingredient/100 kg seeds)
Subsequently, the treated seeds were planted in plastic pots (6 cm×6 cm×7 cm) filled with sand (metro mix). Seeds were incubated in a growth chamber (Conviron) at 25° C. and 60% humidity under a dark/light cycle of 16/8 h for 5 days (seedlings were at code 10). At this point, seedlings were exposed to a temperature of −5° C. for 3 hours. Following cold stress, the viable seedlings were kept growing until they had reached code 13. At this stage, they were submitted to additional 2 hours of cold stress at −5° C. Finally, the number of damaged seedlings (%) for each seed treatment was recorded.

The subject of assay [2] is Adult Citrus trees (Citrus sinensis). Put plainly: Field freeze protection of adult Citrus trees by leaf application. The conditions noted are these: three 1600 g/ha leaf applications at 14 to 18 day intervals. The method, then:
Adult Citrus trees (Citrus sinensis) were treated by three 1600 g/ha pyraclostrobin leaf applications at 14 to 18 day intervals. Applications began shortly before the initial freeze in winter seasons. Temperatures dropped to −6° C. in three separate cold weather events. With extreme low temperatures, nothing is expected to reduce damage.

The test system of assay [3] is Arabidopsis thaliana plants. Put plainly: Cold/freezing stress on Arabidopsis thaliana plants, visual assessment of % leaf damage. The note with it: for reduction of cold stress symptoms: Arabidopsis plants under different stress conditions. On the procedure: Arabidopsis thaliana plants were grown in pots (8 cm diameter) under controlled environmental conditions at 21° C. during the day and at 19° C. during the night, under a light regiment of 9 h light and 15 h dark per day.
Chemical treatment was done 18 days after sowing. Each pot was treated with 500 μl of spray solution according to the treatment schedule below with a commercial pump spray applicator.
2) Orysastrobin (250 ppm) 3) Orysastrobin (500 ppm) 4) Pyraclostrobin (500 ppm)
After chemical treatment, the pots have been transferred to the same growth conditions for three days. Then the pots were transferred to three different environmental conditions to exert cold stress:
Control plants (A) were kept under the same conditions as described above.
Stressed plants (B) were transferred for 2 days to 6° C. under a 9-15 h day-night cycle. This cold treatment allows Arabidopsis plants to acclimate to a certain extent to the following freezing stress (−4° C., 24 h in the dark) (Wanner et al., 1999, Cold-induced freezing tolerance in Arabidopsis, Plant Physiology 120, 391-399).
Stressed plants (C) were not cold-hardened and kept for another 2 days under control environment before being transferred for one day to −4° C. without light.
After these treatments, all pots were returned to standard growth conditions (controlled environmental conditions) as described above.
3 days and 9 days after chemical treatment (3 days after recovery from freezing treatment) the trial was evaluated by visual assessment, scoring the symptoms in % leaf damage.

[4] abbreviates: stress condition A (control plants, 21° C./19° C., no cold stress), 500 ppm spray, 9 days after chemical treatment.
Setting [5] is: stress condition B (2 days 6° C. hardening, then −4° C. 24 h dark), 500 ppm spray, 3 days after recovery from freezing.
[6] abbreviates: stress condition C (not cold-hardened, −4° C. 24 h dark), 500 ppm spray, 3 days after recovery from freezing.

In the case of `CO/C=C(/C(=O)OC)c1ccccc1Oc1cc(Oc2ccccc2C#N)ncn1` [Azoxystrobin, azoxystrobin], the “number of damaged seedlings (%)” value in assay [1] (seed treatment 1 g active ingredient/100 kg seeds) was 38%.

Take pyraclostrobin: in assay [1] (seed treatment 5 g active ingredient 100 kg seeds), the “number of damaged seedlings (%)” value was 0%. Further, the “chilling protection in citrus” value in assay [2] (temperatures dropped to −6° C.) is given as “strong chilling protection”. The “leaf burn symptoms and fruit drop versus untreated control plants” value in assay [2] (temperatures dropped to −6° C. in three cold weather events) was “less leaf burn symptoms and fruit drop”. Besides, in assay [3], the “reduction of cold stress symptoms” value was “highly effective to reduce cold stress symptoms”. Moreover, the leaf damage in assay [3] (setting [4]) was determined as 0%; in assay [3] (setting [5]), 0%; in assay [3] (setting [6]) it was 30%.

Regarding `CNC(=O)/C(=N/OC)c1ccccc1CO/N=C(C)/C(=N/OC)C(/C)=N/OC` [Orysastrobin, orysastrobin], in assay [3], the “reduction of cold stress symptoms” value is recorded as “highly effective to reduce cold stress symptoms”. Moreover, the leaf damage in assay [3] (stress condition A (control plants, 21° C./19° C., no cold stress), 250 ppm spray, 9 days after chemical treatment) is given as 0%; in assay [3] (setting [4]), 0%; in assay [3] (stress condition B (2 days 6° C. hardening, then −4° C. 24 h dark), 250 ppm spray, 3 days after recovery from freezing) it was 0%; in assay [3] (setting [5]), 0%; in assay [3] (stress condition C (not cold-hardened, −4° C. 24 h dark), 250 ppm spray, 3 days after recovery from freezing), 5%; in assay [3] (setting [6]), 10%.
